Laboratory results published in article PMC2765639 (PLoS Neglected Tropical Diseases, 2009).
Where two headings read alike, the source gives them in different places.

Key:
L. major promastigotes [1] = assay: L. major promastigote drug susceptibility assay (alamar blue, 384-well); type: cell-based, Leishmania major
Experimental: Promastigotes were grown in vented T75 tissue culture flasks and maintained at 28°C. Promastigote cultures were initiated at 10^5 parasites per mL and subcultured every 3–4 days. L. major promastigote counts were performed in duplicate using a hemocytometer and particle counter (Beckman Coulter, Fullerton, CA). For HTS assays, L. major promastigote cultures were harvested during exponential growth phase (∼2.0–3.0×10^7 parasites/mL) and were not maintained past passage 20.
The final test compound concentration was 10 µM with a constant DMSO concentration of 1% in each assay well.
The L. major promastigote drug susceptibility assay was performed in a final volume of 25 µL using our previously described 384-well microtiter plate format,[39]. For automated HTS procedures, L. major promastigotes (5,000 parasites/22 µL) in complete growth medium were seeded into each well of the microtiter plates using a MAPC2 bulk dispenser (Titertek, Huntsville, AL). Test and control compounds (3 µL) were added to individual wells using a Velocity 11 V-prep (Menlo Park, CA) liquid handling system, equipped with a 384-well dispensing head, followed by centrifugation at 50 g for 1 min. […] Assay plates were allowed to incubate for 44 h at 28°C in the presence of 5% CO2. Five µL of alamar blue reagent were added to each assay plate well and incubated for 4 h at 28°C with 5% CO2. Data were captured on a Molecular Devices SpectraMax M5 (excitation560; emission590). Individual assay plate Z-factors were derived from the vehicle and positive controls, and data from plates were used only if Z-factors were >0.5 [50].
The assays were performed in duplicate with a final 10-point concentration range spanning 0.01–5.00 µM.

IMR-90 = assay: Mammalian cell line specificity assay (alamar blue); type: cell-based, human; conditions: Homo sapiens, IMR-90; 44–46 h, alamar blue; read-out: IMR90 EC50 (AVE±SD)
Experimental: (§1) Mammalian cells were cultured and maintained according to ATCC specifications (ATCC, Manassas, VA). Cell line drug susceptibility assays were performed in final volumes of 25 µL using our previously described 384-well microtiter plate format,[39]. […] Test and control compounds were added to individual wells as described above. Vehicle and positive controls were 1% DMSO and 10% DMSO, respectively (final well concentrations). Assay plates were incubated for 44–46 h at 37°C in the presence of 5% CO2 and growth inhibitory effects were determined as described above. Five µL of alamar blue reagent was added to each well and incubated for 2–4 h. Data were captured as described above.

A549 = assay: as above; type: cell-based, human
Experimental: as §1

PC-3 = assay: as above; type: cell-based, human; conditions: Homo sapiens, PC-3; 44–46 h, alamar blue; read-out: PC-3 EC50 (AVE±SD)
Experimental: as §1

MDA-MB-231 = assay: as above; type: cell-based, human; conditions: Homo sapiens, MDA-MB-231; 44–46 h, alamar blue; read-out: MDA EC50 (AVE±SD)
Experimental: as §1

HeLa = assay: as above; type: cell-based, human; conditions: Homo sapiens, HeLa; 44–46 h, alamar blue; read-out: HeLa EC50 (AVE±SD)
Experimental: as §1

L. major promastigotes [2] = assay: Flow cytometer-based growth inhibition and cytotoxicity assay; conditions: Leishmania major, 48 h, read-out: L. major promastigote EC50 (AVE±SD) Confirmation Flow Cytometry
[3] = test system: L. major axenic amastigote-like population; assay: L. major axenic amastigote-like alamar blue assay (pH 4.9); type: cell-based, Leishmania major; conditions: for EC50: Leishmania major; for growth inhibitory activity in axenic amastigote-like assay: pH 4.9
[4] = Homo sapiens, A549, Table S1, PMLSC library samples, read-out: EC50 Ave ± SD, A549
[5] = Leishmania major, read-out: EC50 Ave ± SD, Lm
[6] = 144 h, pH 4.9, read-out: L. major axenic amastigote-like EC50 (AVE±SD) Confirmation Alamar Blue
[7] = Table S1, PMLSC library samples, 10-point 0.01–5.00 µM, read-out: EC50 Ave ± SD, Lm
[8] = Table S1, PMLSC library samples, read-out: EC50 Ave ± SD, A549

C[C@@]1(CO)[C@H](O)CC[C@@]2(C)[C@H]1CC[C@H]1C[C@@H]3C[C@@]12CC[C@]3(O)CO [Aphidicolin, reference compound] gave an EC50 (L. major promastigotes [1]; Leishmania major, 48 h, compounds from commercial supplier, 44 h + 4 h alamar blue, 28°C, read-out: L. major promastigote EC50 (AVE±SD) Confirmation Alamar Blue) of 220 ± 20 nM, an EC50 (L. major promastigotes [1]; Leishmania major, Table S1, PMLSC library samples, 10-point 0.01–5.00 µM, read-out: EC50 Ave ± SD, Lm) of 121 ± 20 nM and an EC50 (IMR-90) of over 50000 nM. The EC50 (A549; Homo sapiens, A549, 44–46 h, alamar blue, read-out: A549 EC50 (AVE±SD)) was over 50000 nM, the EC50 (A549; [4]) was over 5000 nM and the EC50 (PC-3) was over 50000 nM. It also gave an EC50 (MDA-MB-231) of over 50000 nM, an EC50 (HeLa) of over 50000 nM and an EC50 (L. major promastigotes [2]) of 390 ± 110 nM. For the same compound, the EC50 ([3]; pH 4.9, 144 h, 32°C, read-out: L. major axenic amastigote-like EC50 (AVE±SD) Confirmation Alamar Blue) was 50 ± 10 nM and the “growth inhibitory activity in axenic amastigote-like assay” value [3] was “comparable to amphotericin B”.
In the case of Cc1[nH]c2c(Cl)cccc2c(=O)c1CN1CCCC1 [CID 728862], the EC50 (L. major promastigotes [1]; [5]) is reported as 392 ± 50 nM, the EC50 (A549; [4]) is reported as over 5000 nM and the EC50 (L. major promastigotes [2]) is reported as 1770 ± 120 nM. The EC50 [3, 6] was 4300 ± 800 nM.
Compound CCN(CC)CCN(C)C1CCC(c2ccccc2)CC1 (stereo not drawn) [CID 742546] has an EC50 (L. major promastigotes [1]; [5]) of 827 ± 116 nM, an EC50 (A549; [4]) of over 5000 nM and an EC50 (L. major promastigotes [2]) of 430 ± 300 nM. The EC50 [3, 6] was over 50000 nM.
Cc1cc(C)nc(/N=C2\SNSC2Cl)c1 (stereo not drawn) [CID 757789] showed an EC50 (L. major promastigotes [1]; [5]) of 353 ± 25 nM, an EC50 (A549; [4]) of over 5000 nM and an EC50 (L. major promastigotes [2]) of 1940 ± 150 nM. For the same compound, the EC50 [3, 6] was 3200 ± 800 nM.
For COc1cccc2c(=O)c(C/C=C(/C)Cl)c(C)[nH]c12 [CID 760847], the EC50 (L. major promastigotes [1]; [5]) was 108 ± 23 nM, the EC50 (A549; [4]) was over 5000 nM and the EC50 (L. major promastigotes [2]) was 200 ± 50 nM. The EC50 [3, 6] was 210 ± 90 nM and the “growth inhibitory activity in axenic amastigote-like assay” value [3] was “comparable to amphotericin B”.
For Cc1ccc(S(=O)(=O)c2ccc(Oc3cccc(C)c3)cc2)cc1 [CID 786799], the EC50 (L. major promastigotes [1]; [5]) was 180 ± 35 nM, the EC50 (A549; [4]) was over 5000 nM and the EC50 (L. major promastigotes [2]) was 2220 ± 110 nM. The EC50 [3, 6] was 3600 ± 130 nM.
For Cc1ccc(OCCCCn2ccnc2)c(Cl)c1 [CID 2851545], the EC50 (L. major promastigotes [1]; [5]) was 133 ± 35 nM, the EC50 (A549; [4]) was over 5000 nM and the EC50 (L. major promastigotes [2]) was 340 ± 480 nM. The EC50 [3, 6] was 11700 ± 500 nM.
O=C1C2ON(c3ccc(Br)cc3)C(c3ccccn3)C2C(=O)N1C1CCCCC1 (stereo not drawn) [CID 2946668] showed an EC50 (L. major promastigotes [1]; [5]) of 515 ± 66 nM, an EC50 (A549; [4]) of over 5000 nM and an EC50 (L. major promastigotes [2]) of 350 ± 60 nM. For the same compound, the EC50 [3, 6] was 1200 ± 400 nM.
C[C@H]1C[C@@H](C)C(=O)[C@@H]([C@H](O)CC2CC(=O)NC(=O)C2)C1 [CID 6604199] showed an EC50 (L. major promastigotes [1]; [7]) of 5 ± 0.1 nM and an EC50 (A549; [8]) of 1900 ± 1400 nM.
With c1ccc2c(c1)OC(CCCN1CCCCC1)c1ccccc1S2 (stereo not drawn) [CID 9549148] the EC50 (L. major promastigotes [1]; [7]) was 137 ± 40 nM and the EC50 (A549; [8]) was over 5000 nM.
COC(=O)c1ccc2c(c1)C(C)(C)C(/C=C/c1ccc(OC)c(OC)c1OC)=[N+]2C [CID 9550329] was tested, and the EC50 (L. major promastigotes [1]; [7]) was 50 ± 0.1 nM and the EC50 (A549; [8]) was over 5000 nM.
In the case of CCCCCCCCCCCCCCCC[n+]1ccc(/C=N/O)cc1 [CID 11293258], the EC50 (L. major promastigotes [1]; [7]) is reported as 10 ± 2 nM and the EC50 (A549; [8]) is reported as 1300 ± 76 nM.
Work on O=C(COc1ccccc1F)NC1CCN(Cc2ccccc2)CC1 [CID 11834429] yielded an EC50 (L. major promastigotes [1]; [7]) of 142 ± 32 nM and an EC50 (A549; [8]) of over 5000 nM.
Compound Cc1ccccc1NC1=C/C(=N\S(=O)(=O)c2cccs2)c2ccccc2C1=O [CID 11834470] has an EC50 (L. major promastigotes [1]; [7]) of 211 ± 47 nM and an EC50 (A549; [8]) of over 5000 nM.
COCCCN1CCN(c2nnc3n2-c2sc(Br)cc2C(c2ccccc2Cl)=NC3)CC1 [CID 11948854] showed an EC50 (L. major promastigotes [1]; [7]) of 607 ± 166 nM and an EC50 (A549; [8]) of over 5000 nM.
Work on CCCCCCCCC[n+]1cccc2c3ccccc3ccc21 [CID 11957314] yielded an EC50 (L. major promastigotes [1]; [7]) of 205 ± 21 nM and an EC50 (A549; [8]) of 1140 ± 53 nM.
In the case of CC[n+]1c(/C=C/N(C)c2ccccc2)sc2ccc(Cl)cc21.[O-][Cl+3]([O-])([O-])[O-] [CID 11958710], the EC50 (L. major promastigotes [1]; [7]) is reported as 174 ± 32 nM and the EC50 (A549; [8]) is reported as over 5000 nM.
CC(=O)O[C@@H]1C[C@H]2C(C)(C)C(=O)C=C[C@]2(C)[C@H]2CC[C@@]3(C)[C@H](c4ccoc4)OC(=O)[C@H]4O[C@]43[C@@]21C [CID 12004512] gave an EC50 (L. major promastigotes [1]; [7]) of 746 ± 211 nM and an EC50 (A549; [8]) of over 5000 nM.
